# Measured values published in US20250163484A1, “Methods for Incorporating Azido Groups in Bacterial Capsular Polysaccharides” (PFIZER INC., priority 2022, published 2025).
# Tests used:
# [1] = test system: S. pneumoniae T14 capsule polysaccharide; format: cell-based, Streptococcus pneumoniae serotype 14; details: 2AzGlcAc4 2.5-10 mM, production medium + Galactose (30 g/L), DMSO 2%
# Protocol: (§1) FIGS. 1A-1D. Screen for azido sugar incorporation into S. pneumoniae T14 capsule polysaccharide. […] Bacteria were grown until the ΔOD600≥0 for >30 minutes, then lysed with 0.1% NLS for 30 minutes. Growth was measured offline using a spectrophotometer blanked with PBS at 600 nm. (FIG. 1A) azido incorporation into polysaccharide was then quantified via fluorescent labeling (FL) with normalization to refractive index (RI). MaxOD and End Of Fermentation time (EOF) are provided in (FIG. 1B) and (FIG. 1C), respectively. Polysaccharide was extracted using EtOH and CaCl2 and analyzed via SEC-RI for (FIG. 1D) polysaccharide titer. n=1-4, error bars=+/−StDev.
# A SEC fluorescence and Refractive index assay (SEC-FL/RI) was used for azide measurement to confirm the incorporation of azide modification.
# Click-It Cell Reaction Buffer kit and Alexa Fluor 488 Alkyne were purchased from Invitrogen.
# The initial procedure when running the SEC-FL/RI was to prepare the sample to a target concentration of 0.01 mg/m by mixing a pre-diluted polysaccharide to the final target concentration with the Click Reaction mixture. The reaction mixture consisted of 2.67 mM CuSO4, 2.67 mg/mL cell additive reagent, and 20 uM Alexa Fluor Alkyne. This was mixed with the sample at a 3:1 ratio of reaction mixture to sample and incubated in the absence of light. Reactions were transferred to HPLC vials and ran on the SEC-FL/RI HPLC setup. The RI detector (RID) allowed for detection of the polysaccharide while the Fluorescence Detector (FLD) was used to determine the level of fluor incorporated into the polysaccharide sample. The ratio of the two peak areas gave a measurement for the amount of azide incorporated to the polysaccharide.
# Later, in addition to the incubation of the sample for thirty minutes, a buffer exchange step was added that washed out the unreacted fluor as well as the reaction matrix reagents in order to improve the baselines of the FLD and RID during the HPLC run. This added greater resolution of the peak associated with the azide functionalized polysaccharide. The assay was useful for relative quantitation of azide incorporation into the polysaccharide but could not quantify an exact numerical concentration. To improve this aspect work was undertaken to use a polysaccharide with known levels of azido functionalization to make a standard curve that varied the % Azido while keeping the polysaccharide mass the same. This was done by mixing the known azido modified poly (polysaccharide) with specific amounts of native (unmodified) polysaccharide. A strong linear fit for the generated standard curve was seen.
# The values for percent azide were able to be converted to a μM azide per mM polysaccharide by converting from % azide using the constant polysaccharide concentration.
# [2] = test system: S. pneumoniae T14; format: cell-based, Streptococcus pneumoniae serotype 14; details: production medium + Galactose (30 g/L)
# Protocol: as §1
# FIGS. 2A-2D Impact of 2AzGlcAc4 concentration on S. pneumoniae T14 growth and poly production in production medium supplemented with Galactose (30 g/L). […] (FIG. 2A) Growth was measured offline using a spectrophotometer blanked with PBS at 600 nm. At the end of fermentation, cultures were lysed with 0.1% NLS for 30 min. and polysaccharide was extracted via EtOH/CaCl2) precipitation. Polysaccharide titer (FIG. 2B) and size (FIG. 2C) were measured via SEC-RI and SEC-MALS, respectively. (FIG. 2D) azido incorporation was then quantified via fluorescent labeling (FL) and normalized to the refractive index (RI). n=3, error bars=+/−StDev.
# FIGS. 3A-3E Impact of 2AzGlc concentration on S. pneumoniae T14 growth and polysaccharide production in production medium supplemented with Galactose (30 g/L). […] (FIG. 3A) Growth was measured offline using a spectrophotometer blanked with PBS at 600 nm. Cultures were lysed with 0.1% NLS for 30 min. and polysaccharide was extracted via EtOH/CaCl2) precipitation. Polysaccharide (FIG. 3B/FIG. 3C) titer and (FIG. 3D) size were measured via SEC-RI and SEC-MALS, respectively. (FIG. 3E) azido incorporation was then quantified via fluorescent labeling (FL) and normalized to the refractive index (RI). n=3, error bars=+/−StDev.
# We tested the impact of 2AzGlc concentration on S. pneumoniae T14 growth, polysaccharide production, and azido incorporation by growing the bacteria in production media (supplemented with Glucose (dextrose, 30 g/L)) with various concentrations of 2AzGlc (0, 1, 5, 10, 20, 40, and 60 mM).
# [3] = Solubility of azido sugar in production medium; format: physicochemical; details: production medium supplemented with galactose (30 g/L), aqueous buffer; read-out: limit of solubility
# [4] = test system: S. pneumoniae T14; experiment: Growth of S. pneumoniae T14 in fermentation with azido sugar (OD600); format: cell-based, Streptococcus pneumoniae serotype 14
smiles,measurement,setting,value
"CC(=O)OC[C@H]1OC(OC(C)=O)[C@H](N=[N+]=[N-])[C@@H](OC(C)=O)[C@@H]1OC(C)=O (stereo partly drawn) [2AzGlcAc4, 1,3,4,6-Tetra-O-acetyl-2-azido-2-deoxy-D-glucopyranose]",FL/RI with increasing concentrations,[1],did not cause an increase
same,polysaccharide titer,"[2]; 2AzGlcAc4 2.5, 5, 10 mM (not 7.5 mM), DMSO 2%",statistically significant reduction
same,solubility,[3],≤ 1000 µM
same,impact on growth,"[4]; 2AzGlcAc4 2.5, 5, 7.5, 10 mM, production medium + Galactose (30 g/L), DMSO 2%",no impact
"[N-]=[N+]=N[C@H]1[C@H](O)[C@@H](CO)OC(O)[C@@H]1O (stereo partly drawn) [3AzGlc, 3-azido-3-deoxy-D-glucopyranose]",End Of Fermentation (EOF) time,"[4]; screen, azido sugar 1 mM, only in production medium + Galactose",elongated
"CC(=O)OC[C@H]1OC(O)[C@H](N=[N+]=[N-])[C@@H](OC(C)=O)[C@@H]1O (stereo partly drawn) [2AzGlcAc2, 3,6-Di-O-acetyl-2-azido-2-deoxy-D-glucopyranose]",polysaccharide production,[2]; azido sugar 20 mM without DMSO,strongly inhibited
same,growth,"[4]; azido sugar 20 mM without DMSO, production medium + Galactose (30 g/L)",strongly inhibited
